Assay results from patent US20180289620A1, “NANOPARTICLE FORMULATIONS AND USES THEREOF” (Abraxis BioScience, LLC, priority 2008, published 2018).
Read-outs that look alike come from different tables or passages of the source.

Legend:
[1] = Log P of hydrophobic taxane derivatives; format: physicochemical; details: method not stated
[2] = Pharmacokinetics of Nab-2 in monkeys; format: in vivo; details: cynomolgus monkey; for AUCINF/D / Cmax/D / HL_Lambda_z / AUC(0-inf) / Cmax / Tmax / concentration at 0 hr / concentration at […] / concentration at 0.25 hr / concentration at 0.5 hr / concentration at 1 hr / concentration at 2 hr / concentration at 8 hr: label = analyte; for clearance / AUC(0-inf) / Cmax / Tmax / concentration at 0 hr / concentration at […] / concentration at 0.25 hr / concentration at 0.5 hr / concentration at 1 hr / concentration at 2 hr / concentration at 8 hr / Vd: male, blood; for concentration at […]: time 0.083 hr; for Vd: iv
Excerpt: The day of the initial dose administration was designated Study Day 1, with subsequent days consecutively numbered. Days on study prior to the initial dose administration were consecutively numbered with the final day of acclimation referenced as day −1.
Three non-naïve, male cynomolgus monkeys, confirmed to have no prior exposure to albumin, were assigned to dose groups as specified in Table 6 shown below. Animals weighed 5.4-6.7 kg and were 4 to 7 years of age at study initiation.
All animals were dosed once weekly, on days 1, 8 and 15. Animals in Groups 3 and 4 were administered Nab-2 (lot: ABI139-2-83) at 5 and 10 mg/kg, respectively, and the Group 5 animal was administered Nab-2 at 20, 10 and 10 mg/kg (on days 1, 8 and 15, respectively) via 30 minute intravenous infusion. Clinical observations were performed twice daily and body weights were recorded weekly throughout the study.

[3] = system: MX-1 (human breast carcinoma) cells; test: In vitro growth inhibition (cytotoxicity, CellTiter Blue Cell Viability Assay); format: cell-based; details: cells exposed 72 hr
Description: A cytotoxicity assay was quantitated using the Promega CellTiter Blue Cell Viability Assay. Briefly, cells (5000 cells/well) were plated onto 96-well microtiter plates in RPMI 1640 medium supplemented with 10% FBS and incubated at 37° C. in a humidified 5% CO2 atmosphere. After 24 hr., cells were exposed to various concentrations of hydrophobic taxane derivative in DMSO and cultured for another 72 hr, 100 uL of media were removed and 20 uL of Promega CellTiter Blue reagent were added to each well and shaken to mix. After 4 hours of incubation at 37° C. in a humidified 5% CO2 atmosphere, the plates were read at 544 ex/620 em. The fluorescence produced is proportional to the number of viable cells. After plotting fluorescence produced against drug concentration, the IC50 was calculated as the […] of the resulting non-linear regression.

CCCCCC(=O)O[C@@H](C(=O)O[C@H]1C[C@@]2(O)[C@@H](OC(=O)c3ccccc3)C3[C@](C)(C(=O)[C@H](O)C(=C1C)C2(C)C)[C@@H](O)C[C@H]1OC[C@@]31OC(C)=O)[C@@H](NC(=O)OC(C)(C)C)c1ccccc1 (stereo partly drawn) [Compound 2, 2′-Hexanoyl Docetaxel]
logP [1]: 6.44
AUCINF/D ([2]; Nab-2 IV 5 mg/kg): 723 kg·ng·h/mL/mg
Cmax/D ([2]; Nab-2 IV 5 mg/kg): 215 kg·ng/mL/mg
HL_Lambda_z ([2]; Nab-2 IV 5 mg/kg): 3.6 h
AUCINF/D ([2]; Nab-2 IV 10 mg/kg): 535 kg·ng·h/mL/mg
Cmax/D ([2]; Nab-2 IV 10 mg/kg): 155 kg·ng/mL/mg
HL_Lambda_z ([2]; Nab-2 IV 10 mg/kg): 3.7 h
AUCINF/D ([2]; Nab-2 IV 20 mg/kg): 393 kg·ng·h/mL/mg
Cmax/D ([2]; Nab-2 IV 20 mg/kg): 131 kg·ng/mL/mg
HL_Lambda_z ([2]; Nab-2 IV 20 mg/kg): 3.0 h
clearance ([2]; Nab-2 IV 5 mg/kg): 1.38 L/h/kg
AUC(0-inf) ([2]; Nab-2 IV 5 mg/kg): 3.61 µg·h/mL
Cmax ([2]; Nab-2 IV 5 mg/kg): 1.07 µg/mL
Tmax ([2]; Nab-2 IV 5 mg/kg): 4.98 min
concentration at 0 hr ([2]; Nab-2 IV 5 mg/kg): 0 µg/mL
concentration at […] ([2]; Nab-2 IV 5 mg/kg): 1.07 µg/mL
concentration at 0.25 hr ([2]; Nab-2 IV 5 mg/kg): 0.94 µg/mL
concentration at 0.5 hr ([2]; Nab-2 IV 5 mg/kg): 0.774 µg/mL
concentration at 1 hr ([2]; Nab-2 IV 5 mg/kg): 0.534 µg/mL
concentration at 2 hr ([2]; Nab-2 IV 5 mg/kg): 0.422 µg/mL
concentration at 8 hr ([2]; Nab-2 IV 5 mg/kg): 0.136 µg/mL
clearance ([2]; Nab-2 IV 10 mg/kg): 1.87 L/h/kg
AUC(0-inf) ([2]; Nab-2 IV 10 mg/kg): 5.35 µg·h/mL
Cmax ([2]; Nab-2 IV 10 mg/kg): 1.55 µg/mL
Tmax ([2]; Nab-2 IV 10 mg/kg): 4.98 min
concentration at 0 hr ([2]; Nab-2 IV 10 mg/kg): 0 µg/mL
concentration at […] ([2]; Nab-2 IV 10 mg/kg): 1.55 µg/mL
concentration at 0.25 hr ([2]; Nab-2 IV 10 mg/kg): 1.3 µg/mL
concentration at 0.5 hr ([2]; Nab-2 IV 10 mg/kg): 0.936 µg/mL
concentration at 1 hr ([2]; Nab-2 IV 10 mg/kg): 0.734 µg/mL
concentration at 2 hr ([2]; Nab-2 IV 10 mg/kg): 0.657 µg/mL
concentration at 8 hr ([2]; Nab-2 IV 10 mg/kg): 0.202 µg/mL
clearance ([2]; Nab-2 IV 20 mg/kg): 2.54 L/h/kg
AUC(0-inf) ([2]; Nab-2 IV 20 mg/kg): 7.86 µg·h/mL
Cmax ([2]; Nab-2 IV 20 mg/kg): 2.62 µg/mL
Tmax ([2]; Nab-2 IV 20 mg/kg): 15 min
concentration at 0 hr ([2]; Nab-2 IV 20 mg/kg): 0 µg/mL
concentration at […] ([2]; Nab-2 IV 20 mg/kg): 2.39 µg/mL
concentration at 0.25 hr ([2]; Nab-2 IV 20 mg/kg): 2.62 µg/mL
concentration at 0.5 hr ([2]; Nab-2 IV 20 mg/kg): 1.82 µg/mL
concentration at 1 hr ([2]; Nab-2 IV 20 mg/kg): 1.37 µg/mL
concentration at 2 hr ([2]; Nab-2 IV 20 mg/kg): 0.958 µg/mL
concentration at 8 hr ([2]; Nab-2 IV 20 mg/kg): 0.264 µg/mL
Vd ([2]; 5 mg/kg, Nab-2 IV 5 mg/kg, read-out: Vss): 5.84 L/kg
Vd ([2]; 5 mg/kg, Nab-2 IV 5 mg/kg, read-out: Vz): 7.18 L/kg
Vd ([2]; 10 mg/kg, Nab-2 IV 10 mg/kg, read-out: Vss): 8.12 L/kg
Vd ([2]; 10 mg/kg, Nab-2 IV 10 mg/kg, read-out: Vz): 9.93 L/kg
Vd ([2]; 20 mg/kg, Nab-2 IV 20 mg/kg, read-out: Vss): 8.74 L/kg
Vd ([2]; 20 mg/kg, Nab-2 IV 20 mg/kg, read-out: Vz): 11.2 L/kg
Vd ([2]; Nab-2 IV 5-20 mg/kg, read-out: volume of distribution Vz): 7 to 11 L/kg
IC50 [3]: 103 µM

CCC(=O)O[C@@H](C(=O)O[C@H]1C[C@@]2(O)[C@@H](OC(=O)c3ccccc3)C3[C@](C)(C(=O)[C@H](O)C(=C1C)C2(C)C)[C@@H](O)C[C@H]1OC[C@@]31OC(C)=O)[C@@H](NC(=O)OC(C)(C)C)c1ccccc1 (stereo partly drawn) [Compound 5, 2′-Propionyl-Docetaxel]
logP [1]: 5.31
IC50 [3]: 209 µM

CC(=O)O[C@@]12CO[C@@H]1C[C@H](O)[C@@]1(C)C(=O)[C@H](O)C3=C(C)[C@@H](OC(=O)[C@H](OC(=O)c4ccccc4)[C@@H](NC(=O)OC(C)(C)C)c4ccccc4)C[C@@](O)([C@@H](OC(=O)c4ccccc4)C12)C3(C)C (stereo partly drawn) [Compound 1, 2′-Benzoyl-Docetaxel]
logP [1]: 6.67
IC50 [3]: 38.4 µM

CC(=O)O[C@@]12CO[C@@H]1C[C@H](O)[C@@]1(C)C(=O)[C@H](O)C3=C(C)[C@@H](OC(=O)[C@H](O)[C@@H](NC(=O)OC(C)(C)C)c4ccccc4)C[C@@](O)([C@@H](OC(=O)c4ccccc4)C12)C3(C)C (stereo partly drawn) [Docetaxel, docetaxel, reference compound]
Log P [1]: 4.20
AUCINF/D ([2]; Nab-2 IV 5 mg/kg): 35 kg·ng·h/mL/mg
Cmax/D ([2]; Nab-2 IV 5 mg/kg): 8 kg·ng/mL/mg
HL_Lambda_z ([2]; Nab-2 IV 5 mg/kg): 1.4 h
AUCINF/D ([2]; Nab-2 IV 10 mg/kg): 31 kg·ng·h/mL/mg
Cmax/D ([2]; Nab-2 IV 10 mg/kg): 10 kg·ng/mL/mg
HL_Lambda_z ([2]; Nab-2 IV 10 mg/kg): 3.2 h
AUCINF/D ([2]; Nab-2 IV 20 mg/kg): 20 kg·ng·h/mL/mg
Cmax/D ([2]; Nab-2 IV 20 mg/kg): 19 kg·ng/mL/mg
HL_Lambda_z ([2]; Nab-2 IV 20 mg/kg): 1.4 h
AUC(0-inf) ([2]; Nab-2 IV 5 mg/kg): 0.175 µg·h/mL
Cmax ([2]; Nab-2 IV 5 mg/kg): 0.041 µg/mL
Tmax ([2]; Nab-2 IV 5 mg/kg): 15 min
concentration at 0 hr ([2]; Nab-2 IV 5 mg/kg): 0 µg/mL
concentration at […] ([2]; Nab-2 IV 5 mg/kg): 0.0367 µg/mL
concentration at 0.25 hr ([2]; Nab-2 IV 5 mg/kg): 0.0407 µg/mL
concentration at 0.5 hr ([2]; Nab-2 IV 5 mg/kg): 0.0355 µg/mL
concentration at 1 hr ([2]; Nab-2 IV 5 mg/kg): 0.0321 µg/mL
concentration at 2 hr ([2]; Nab-2 IV 5 mg/kg): 0.0341 µg/mL
concentration at 8 hr ([2]; Nab-2 IV 5 mg/kg): 0.00115 µg/mL
AUC(0-inf) ([2]; Nab-2 IV 10 mg/kg): 0.314 µg·h/mL
Cmax ([2]; Nab-2 IV 10 mg/kg): 0.099 µg/mL
concentration at 0 hr ([2]; Nab-2 IV 10 mg/kg): 0 µg/mL
concentration at […] ([2]; Nab-2 IV 10 mg/kg): 0.0994 µg/mL
concentration at 0.25 hr ([2]; Nab-2 IV 10 mg/kg): 0.0701 µg/mL
concentration at 0.5 hr ([2]; Nab-2 IV 10 mg/kg): 0.0634 µg/mL
concentration at 1 hr ([2]; Nab-2 IV 10 mg/kg): 0.0475 µg/mL
concentration at 2 hr ([2]; Nab-2 IV 10 mg/kg): 0.0442 µg/mL
concentration at 8 hr ([2]; Nab-2 IV 10 mg/kg): 0 µg/mL
AUC(0-inf) ([2]; Nab-2 IV 20 mg/kg): 0.394 µg·h/mL
Cmax ([2]; Nab-2 IV 20 mg/kg): 0.382 µg/mL
concentration at 0 hr ([2]; Nab-2 IV 20 mg/kg): 0 µg/mL
concentration at […] ([2]; Nab-2 IV 20 mg/kg): 0.382 µg/mL
concentration at 0.25 hr ([2]; Nab-2 IV 20 mg/kg): 0.232 µg/mL
concentration at 0.5 hr ([2]; Nab-2 IV 20 mg/kg): 0.157 µg/mL
concentration at 1 hr ([2]; Nab-2 IV 20 mg/kg): 0.0905 µg/mL
concentration at 2 hr ([2]; Nab-2 IV 20 mg/kg): 0.0692 µg/mL
concentration at 8 hr ([2]; Nab-2 IV 20 mg/kg): 0 µg/mL

CCCCCCCCCC(=O)O[C@@H](C(=O)O[C@H]1C[C@@]2(O)[C@@H](OC(=O)c3ccccc3)C3[C@](C)(C(=O)[C@H](O)C(=C1C)C2(C)C)[C@@H](O)C[C@H]1OC[C@@]31OC(C)=O)[C@@H](NC(=O)OC(C)(C)C)c1ccccc1 (stereo partly drawn) [Compound 3, 2′-Decanoyl-Docetaxel]
IC50 [3]: 8.8 µM

CCCCC(=O)O[C@@H](C(=O)O[C@H]1C[C@@]2(O)[C@@H](OC(=O)c3ccccc3)C3[C@](C)(C(=O)[C@H](O)C(=C1C)C2(C)C)[C@@H](O)C[C@H]1OC[C@@]31OC(C)=O)[C@@H](NC(=O)OC(C)(C)C)c1ccccc1 (stereo partly drawn) [Compound 4, 2′-Valeryl-Docetaxel]
logP [1]: 6.37
IC50 [3]: 211 µM
